Experiments:
Pythium ultimum = assay: microbe, parasite or virus in culture; type: cell-based
Botrytis cinerea = assay: microbe, parasite or virus in culture; type: cell-based
Fusarium nivale = assay: microbe, parasite or virus in culture; type: cell-based
Cucumber Powdery Mildew = assay: Soil drench for the control of cucumber powdery mildew; type: in vivo; conditions: 300 ppm, greenhouse soil drench
Method: (§1) Soil Drench for the Control of Barley or Cucumber Powdery Mildew
(§2) Technical grade material formulated as described for foliar sprays is dispensed at defined rates (ml/cm^3) into the soil in the pots for barley and cucumber in the stages as described for the foliar sprays. Treated plants are inoculated, within 24 hours with the respective powdery mildew species as described for the foliar spray tests. Inoculated plants are kept in the greenhouse for 6–8 days for disease development. Disease severity is examined and the % control is calculated as [% disease on untreated plants−% disease on treated plants]/% disease on untreated plants. The results of these tests are shown in Table 2B below under the heading “Drench Application—Barley Powdery Mildew” and “Drench Application—Cucumber Powdery Mildew”.

Rhizoctonia solani = assay: microbe, parasite or virus in culture; type: cell-based
Sclerotinia minor = type: cell-based
Colletotrichum gossypii = type: cell-based
Barley Powdery Mildew = assay: Soil drench for the control of barley powdery mildew; type: in vivo, Erysiyphe graminis f.sp. hordei; conditions: 300 ppm, greenhouse soil drench
Method: as §1, §2

Phytophthora infestans [1] = assay: microbe, parasite or virus in culture; type: cell-based; conditions: in vitro, rate 100 ppm, 48 hours
[2] = test system: Cercosporidium personatum; type: cell-based
[3] = test system: Erysiyphe graminis f.sp. hordei; assay: Foliar spray for the control of barley powdery mildew; type: in vivo; conditions: 300 ppm, greenhouse foliar spray, barley plants
Method: Foliar Spray for the Control of Barley Powdery Mildew caused by Erysiyphe graminis f.sp. hordei
Technical grade material at defined ppm rates (w/v) in an acetone:water mixture (1:9) containing 0.1% Tween 20 (v/v) is sprayed to near run-off onto 7-days-old greenhouse-grown barley plants (var. “Robust”) at the cotyledon stage. Treated plants are inoculated within 24 hours by brushing mildew-infected plants over the treated plants. Inoculated plants are kept in the greenhouse for 6–8 days for disease development. Disease severity is examined and the % control is calculated as [% disease on untreated plants−% disease on treated plants]/% diseases in untreated plants. The results of these tests are shown in Table 2A below under the heading “Foliar Application—Barley Powdery Mildew”.

Phytophthora infestans [4] = type: in vivo; conditions: 300 ppm, greenhouse foliar spray, tomato plants
Erysiyphe polygoni = assay: Foliar spray for the control of bean powdery mildew; type: in vivo; conditions: 300 ppm, greenhouse foliar spray, Pinto bean plants
Method: Foliar Spray for the Control of Bean Powdery Mildew Caused by Erysiyphe polygoni
Technical grade material at defined ppm rates (w/v) in an acetone:water mixture (1:9) containing 0.1% Tween 20 (v/v) is sprayed to near run-off onto greenhouse-grown Pinto bean plants (var. “Othello”) in the second leaf stage. Treated plants are inoculated within 24 hours by brushing mildew-infected plants over treated plants. Inoculated plants are kept in the greenhouse for two weeks for disease development. Disease severity is examined and the % control is calculated as [% disease on untreated plants−% disease on treated plants]/% disease on untreated plants. The results of these tests are shown in Table 2A below under the heading “Foliar Application—Bean Powdery Mildew”.

Uromyces appendiculatus = assay: Foliar spray for the control of bean rust; type: in vivo; conditions: 300 ppm, screened against rust on beans as foliar-applied eradicant
Method: Foliar Spray for the Control of Bean Rust Caused by Uromyces appendiculatus
Technical grade material at defined ppm rates (w/v) in an acetone:water mixture (1:9) containing 0.1% Tween 20 (v/v) is sprayed to near run-off onto 10-days-old greenhouse-grown Pinto bean plants (var. “Othello”) in the second leaf stage. Treated plants are inoculated within 24 hours with an aqueous suspension of approximately 20,000 uredospores of Uromyces appendiculatus harvested from rust-infected plants. Inoculated plants are placed into a high humidity chamber for 24 hr and then transferred to the greenhouse for two weeks for disease development. Disease severity is examined and the % control is calculated as [% disease on untreated plants−% disease on treated plants]/% disease on untreated plants. The results of these tests are shown in Table 2A below under the heading “Foliar Application—Bean Rust”.

Helminthosporium sativum = assay: Foliar spray for the control of barley blotch; type: in vivo; conditions: 300 ppm, greenhouse foliar spray, barley plants
Method: Foliar Spray for the Control of Barley Blotch Caused by Helminthosporium sativum
Technical grade material at defined ppm rates (w/v) in an acetone:water mixture (1:9) containing 0.1% Tween 20 (v/v) is sprayed to near run-off onto 7-days-old greenhouse-grown barley plants (var. “Robust”) at the cotyledon stage. Treated plants are inoculated within 24 hours from spraying with an aqueous suspension of approximately 15,000 conidia/ml of Helminthosporium sativum grown on artificial medium. Inoculated plants are placed into a high humidity chamber for 24 hr and then transferred to the greenhouse for 4–5 days for disease development. Disease severity is examined and the % control is calculated as [% disease on untreated plants−% disease on treated plants]/% disease on untreated plants.
The results of these tests are shown in Table 2A below under the heading “Foliar Application—Barley Blotch”.

Sclerotium rolfsii = type: cell-based

Row | Compound | Percent Control Pythium ultimum (Pythium ultimum) [%] | Percent Control Botrytis cinerea (Botrytis cinerea) [%] | Percent Control Fusarium nivale (Fusarium nivale) [%] | Drench Application (Percent Control) Cucumber Powdery Mildew (Cucumber Powdery Mildew) [%] | Percent Control Rhizoctonia solani (Rhizoctonia solani) [%] | Percent Control Sclerotinia minor (Sclerotinia minor) [%] | Percent Control Colletotricum gossypii (Colletotrichum gossypii) [%] | Drench Application (Percent Control) Barley Powdery Mildew (Barley Powdery Mildew) [%] | Percent Control Phytophthora infestants (Phytophthora infestans [1]) [%] | Percent Control Cercosporidium personatum [2] [%] | Foliar Application (Percent Control) Barley Powdery Mildew [3] [%] | Foliar Application (Percent Control) Tomato Late Blight (Phytophthora infestans [4]) [%] | Foliar Application (Percent Control) Bean Powdery Mildew (Erysiyphe polygoni) [%] | Foliar Application (Percent Control) Bean Rust (Uromyces appendiculatus) | Foliar Application (Percent Control) Barley Blotch (Helminthosporium sativum) [%] | Percent Control Sclerotium rolfsii (Sclerotium rolfsii) [%]
1 | CCC(C)OC(=O)NN(C(=O)C(F)(F)F)c1ccc(Sc2ccccc2)cc1 (stereo not drawn) [Compound 4] | 15 | 75 | 50 | 0 | 95 | 50 | 15 | 0 | 100 | 65 | 0 | 0 | 88 | 0(e) % | 0 | 
2 | COC(=O)NNc1ccc(Oc2cccnc2)cc1 [Compound 5] | 70 | 25 | 90 | 0 | 0 | 100 | 100 | 0 | 20 | 0 | 0 |  | 0 | 0(e) % | 0 | 100
